These results are taken from US9827260B2, “Composition for buffered aminoalkyl glucosaminide phosphate compounds and its use for enhancing an immune response” (GlaxoSmithKline Biologicals s.a., priority 2013, dated 2017).

A short description of data set [1]: Accelerated stability test (forced degradation), 14 days at 40° C. The following applies: both buffers at pH=7.0, FIG. 5.
Description: Buffers 1-7 of Table 1 were screened for stability at the concentrations shown in the Table using an accelerated stability test. The buffer compositions were maintained for 14 days at 40° C.
A short description of data set [2]: Sonication processing time to achieve a clear solution of CRX-601 buffered formulations. The format is physicochemical. Here is the method:
CRX-601 was formulated in the 10 mM HEPES buffered at pH=7.0 at 2 mg/mL target concentration by weighing 3.99 mg of CRX-601 and adding 1.877 mL of 10 mM HEPES followed by ultrasonication in a water bath sonicator. After 25 minutes the solution was visibly clear, but the sonication was continued since the other CRX-601 formulations with the other buffers employed herein had not yet achieved similar visual appearance. This was done because the goal was to subject each CRX-601 buffered formulation to the same amount of processing energy.
CRX-601 was formulated in the 10 mM HEPES buffered at pH=8.0 at 2 mg/mL target concentration by weighing 3.99 mg of CRX-601 and adding 1.877 mL of 10 mM HEPES followed by ultrasonication in a water bath sonicator. After 25 minutes the solution was visibly clear, but the sonication was continued since the other CRX-601 formulations with the other buffers employed herein had not yet achieved similar visual appearance. This was done because the goal was to subject each CRX-601 buffered formulation to the same amount of processing energy.
Each of the buffer solutions was then sonciated to reduce the particle size to allow for sterile filtration.

Consider `CCCCCCCCCCC[C@H](CC(=O)N[C@H]1[C@H](OC[C@H](NC(=O)C[C@@H](CCCCCCCCCCC)OC(=O)CCCCCCCCC)C(=O)O)O[C@H](CO)[C@@H](OP(=O)(O)O)[C@@H]1OC(=O)C[C@@H](CCCCCCCCCCC)OC(=O)CCCCCCCCC)OC(=O)CCCCCCCCC` [CRX-527], for which, in data set [1], the “stability of the AGP in HEPES as compared against phosphate buffer” value is on record as “enhanced stability”.
Take `CCCCCCCCCCC[C@H](CC(=O)N[C@H]1[C@H](OC[C@H](NC(=O)C[C@@H](CCCCCCCCCCC)OCCCCCCCCCC)C(=O)O)O[C@H](CO)[C@@H](OP(=O)(O)O)[C@@H]1OC(=O)C[C@@H](CCCCCCCCCCC)OCCCCCCCCCC)OCCCCCCCCCC` [CRX-601]: the “sonication time until solution visibly clear” value came out at 25 min in data set [2] (2 mg/mL in 10 mM HEPES at pH=7.0, water bath sonicator) and 25 min in data set [2] (2 mg/mL in 10 mM HEPES at pH=8.0, water bath sonicator). Moreover, the “stability of the AGP in HEPES as compared against phosphate buffer” value in data set [1] was “enhanced stability”.
